The values that follow come from ChEMBL document CHEMBL5523720, “Identification of novel GSPT1 degraders by virtual screening and bioassay” (Eur J Med Chem, 2024).

The IC50 is the concentration at which inhibition is half-maximal.

Format in all cases: functional, cell-based
For one assay, the system named is U-266. In words: Antiproliferative activity against human U-266 cells incubated for 48 hrs by MTS assay. The settings on record: U-266, 48 h. (Tetrazolium assays rely on reduction of a dye to a coloured formazan, in cell work by metabolically active cells.)
A further assay has as its system U-937. In words: Antiproliferative activity against human U-937 cells incubated for 48 hrs by MTS assay. To be noted: U-937, 48 h.
In another assay the test system is K562. In words: Antiproliferative activity against human K562 cells incubated for 48 hrs by MTS assay. To be noted: K562, 48 h.
For the next assay, the system named is OCI-AML2. In words: Antiproliferative activity against human OCI-AML2 cells incubated for 48 hrs by MTS assay. The settings on record: OCI-AML2, 48 h.

Take `Cc1nc2c(C)cccc2cc1C(=O)N/N=C/c1c(C)[nH]c2ccccc12`: the 50% inhibitory concentration (IC50) with U-266 is 17.4 µM; in the assay with U-937 it was 20 µM; in the assay on K562 it was 11.1 µM; in the assay on OCI-AML2 it was 10.4 µM.

Turning to `Cc1nc2c(C)cccc2cc1C(=O)N/N=C/c1ccccc1`, the IC50 in the assay with U-266 is 10.1 µM; with U-937, 16.4 µM; in the assay on K562, 37.6 µM; in the assay with OCI-AML2, 11 µM.

On to `COc1ccc2ccccc2c1/C=N/NC(=O)c1cc2cccc(C)c2nc1C`, for which the IC50 with U-266, in the assay on U-937, in the assay with K562 and in the assay with OCI-AML2 was greater than 40 µM each time.

With `Cc1ccc2nc(C)c(C(=O)N/N=C/c3cccc([N+](=O)[O-])c3)cc2c1`, the IC50 in the assay with U-266, in the assay on U-937, with K562 and in the assay on OCI-AML2 was greater than 40 µM throughout.

With `CC(C)=NNC(=O)c1cc2cccc(C)c2nc1C`, the IC50 with U-266, with U-937, in the assay on K562 and with OCI-AML2 was greater than 40 µM in each case.

As to `Cc1nc2c(C)cccc2cc1C(=O)N/N=C/c1cccc(Cl)c1`, the IC50 in the assay on U-266 was 3.1 µM; in the assay with U-937 it was 4.31 µM; in the assay on K562, 9.92 µM; in the assay on OCI-AML2, 2.49 µM.

For the compound `Cc1nc2ccccc2cc1C(=O)N/N=C/c1ccccc1O`, the IC50 in the assay with U-266 was 6.75 µM; in the assay with U-937, 6.53 µM; in the assay on K562 it was greater than 40 µM; in the assay on OCI-AML2, 8.98 µM.

With `Cc1ccc2nc(C)c(C(=O)N/N=C/c3cccc(O)c3)cc2c1`, the IC50 in the assay on U-266, with U-937, in the assay with K562 and in the assay with OCI-AML2 was greater than 40 µM throughout.

For the compound `Cc1nc2c(C)cccc2cc1C(=O)N/N=C/c1ccccc1Cl`, the half-maximal inhibitory concentration (IC50) in the assay on U-266 was 3.93 µM; with U-937, 6.89 µM; in the assay on K562 it was greater than 40 µM; in the assay with OCI-AML2, 2.66 µM.

Consider `Cc1ccc2nc(C)c(C(=O)N/N=C/c3cccc(Cl)c3)cc2c1`, for which the IC50 in the assay on U-266, in the assay with U-937, in the assay on K562 and in the assay on OCI-AML2 was greater than 40 µM throughout.
